Laboratory results reported in article PMC6253991, “2-(3,4-Dihydro-4-Oxothieno[2,3-d]pyrimidin-2-ylthio) Acetamides as a New Class of Falcipain-2 Inhibitors. 3. Design, Synthesis and Biological Evaluation” (Molecules, 2009).

Experiments:
[1] = biological target: T1, recombinant Falcipain-2 (FP-2) (Plasmodium falciparum, UniProt Q8I6U4); test: Falcipain-2 enzyme inhibition assay (fluorogenic substrate Z-Leu-Arg-AMC); type: biochemical; conditions: for IC50 / inhibition at 10 µM: FP-2 30 nM, pH 5.5, 30 min preincubation; for IC50: substrate Z-Leu-Arg-AMC 25 μM; for inhibition at 10 µM: pH 5.5, compound at 10 μM, substrate 25 μM, read-out: Inhibition rate at 10 μM (%)
T1 construct: made in house
T1 sequence (Q8I6U4 244-484): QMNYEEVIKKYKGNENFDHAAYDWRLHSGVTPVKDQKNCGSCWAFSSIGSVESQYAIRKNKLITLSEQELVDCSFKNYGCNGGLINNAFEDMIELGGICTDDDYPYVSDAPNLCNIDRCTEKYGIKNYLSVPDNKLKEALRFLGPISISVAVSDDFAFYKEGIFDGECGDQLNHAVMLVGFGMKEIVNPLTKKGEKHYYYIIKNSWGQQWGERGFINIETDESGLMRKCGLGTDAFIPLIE
Description: For the primary assay, the percent inhibitions of the compounds at 10 μM were measured. […] Therefore, we determined their IC50 values (Table 1).
The purification and refolding of recombinant protein Falcipain-2 was performed as described by Shenai et al. IC50 values against recombinant Falcipain-2 were determined as described previously. FP-2 (30 nM) was incubated for 30 min at room temperature in 100 mM sodium acetate, pH 5.5, 10 mM DTT, with different concentrations of tested inhibitors. Inhibitor solutions were prepared from stock in DMSO (maximum concentration of DMSO in the assay was 1%). After 30 min incubation, the substrate Z-Leu-Arg-AMC (benzoxycarbonyl-Leu-Arg-7-amino-4-methylcoumarin, Bachem AG) in the same buffer was added to a final concentration of 25 μM. The increase in fluorescence (excitation at 355 nm and emission at 460 nm) was monitored for 30 min at room temperature with an automated microtiter plate spectrofluorimeter (Molecular Devices, Flex station). Half-maximal inhibitory concentration (IC50) was determined from plots of percent activity over compound concentration using GraphPad Prism software.

| SMILES | IC50 [1] | inhibition at 10 µM [1] | melting point | inhibitory activity relative to prototype compound 1 (times greater) ([1]; ratio of IC50s against FP-2 versus compound 1) |
| --- | --- | --- | --- | --- |
| NC(=O)c1c(NC(=O)CSc2nc3scc(-c4ccccc4)c3c(=O)n2C2CCCCC2)sc2c1CCC2 [Compound 2a, 2-(2-(3-Cyclohexyl-3,4-dihydro-4-oxo-5-phenylthieno[2,3-d]pyrimidin-2-ylthio)acetamido)-5,6-dihydro-4H-cyclopenta[b]thiophene-3-carboxamide] | 1.46 µM | > 90% | – | ~ 2 times |
| NC(=O)c1c(NC(=O)CSc2nc3scc(-c4ccccc4)c3c(=O)n2Cc2ccccc2)sc2c1CCC2 [Compound 2e] | 5.74 µM | > 90% | 163 to 167 °C | – |
| NC(=O)c1c(NC(=O)CSc2nc3scc(-c4ccccc4)c3c(=O)n2-c2ccc(Cl)cc2)sc2c1CCC2 [Compound 2d] | 4.3 µM | 84.7% | 247 to 249 °C | – |
| NC(=O)c1c(NC(=O)CSc2nc3scc(-c4ccccc4)c3c(=O)n2-c2cccc(F)c2)sc2c1CCC2 [Compound 2b] | 2.05 µM | 79% | 234 to 239 °C | – |
| C=CCn1c(SCC(=O)Nc2sc3c(c2C(N)=O)CCC3)nc2scc(-c3ccccc3)c2c1=O [Compound 1, 2-(2-(3-Allyl-3,4-dihydro-4-oxo-5-phenylthieno[2,3-d]pyrimidin-2-ylthio)acetamido)-5,6-dihydro-4H-cyclopenta[b]thiophene-3-carboxamide] | 2.81 µM | 88.7% | – | – |
| NC(=O)c1c(NC(=O)CSc2nc3scc(-c4ccccc4)c3c(=O)n2-c2ccc([N+](=O)[O-])cc2)sc2c1CCC2 [Compound 2c] | 2.77 µM | 85.4% | 271 to 274 °C | – |

Now from value to molecule:

| IC50 [1] | inhibition at 10 µM [1] | melting point | inhibitory activity relative to prototype compound 1 (times greater) ([1]; ratio of IC50s against FP-2 versus compound 1) | SMILES |
| --- | --- | --- | --- | --- |
| 6.63 µM | 93.3% | 166 to 170 °C | – | C=CCn1c(SCC(=O)Nc2sc3c(c2C(=O)OCC)CCC3)nc2scc(-c3ccccc3)c2c1=O [Compound 4a, Ethyl 2-(2-(3-allyl-3,4-dihydro-4-oxo-5-phenylthieno[2,3-d]pyrimidin-2-ylthio)acetamido)-5,6-dihydro-4H-cyclopenta[b]thiophene-3-carboxylate] |
| 2.95 µM | 85.7% | – | – | C=CCn1c(SCC(=O)Nc2sc3c(c2C(N)=O)CCC3)nc2scc(-c3ccc(Cl)cc3)c2c1=O [Compound 3b, 2-(2-(3-Allyl-3,4-dihydro-4-oxo-5-(4-chlorophenyl)thieno[2,3-d]pyrimidin-2-ylthio)acetamido)-5,6-dihydro-4H-cyclopenta[b]thiophene-3-carboxamide] |
| 5.7 µM | 94.3% | – | – | C=CCn1c(SCC(=O)Nc2ccc(C(=O)OCC)cc2)nc2scc(-c3ccccc3)c2c1=O [Compound 4b, Ethyl 4-(2-(3-allyl-3,4-dihydro-4-oxo-5-phenylthieno[2,3-d]pyrimidin-2-ylthio)acetamido) benzoate] |
| 5.43 µM | > 90% | – | – | C=CCn1c(SCC(=O)Nc2ccc(F)c(Cl)c2)nc2scc(-c3ccccc3)c2c1=O [Compound 4f, 2-(3-Allyl-3,4-dihydro-4-oxo-5-phenylthieno[2,3-d]pyrimidin-2-ylthio)-N-(3-chloro-4-fluorophenyl)-acetamide] |
| 3.31 µM | 90.3% | 192 to 194 °C | – | C=CCn1c(SCC(=O)Nc2nc3ccccc3s2)nc2scc(-c3ccccc3)c2c1=O [Compound 4c, 2-(3-Allyl-3,4-dihydro-4-oxo-5-phenylthieno[2,3-d]pyrimidin-2-ylthio)-N-(benzo[d]thiazol-2-yl)-acetamide] |
| – | – | 212 to 214 °C | – | C=CCn1c(SCC(=O)Nc2sc3c(c2C(N)=O)CCCC3)nc2scc(-c3ccccc3)c2c1=O [Compound 4d, 2-(2-(3-Alyl-3,4-dihydro-4-oxo-5-phenylthieno[2,3-d]pyrimidin-2-ylthio)acetamido)-4,5,6,7-tetra-hydrobenzo[b]thiophene-3-carboxamide] |
| 5.77 µM | 82.2% | – | – | C=CCn1c(SCC(=O)Nc2sc3c(c2C(N)=O)CCC3)nc2sc3c(c2c1=O)CCCC3 [Compound 3a] |
| – | 53% | – | – | C=CCn1c(SCC(=O)Nc2sc3c(c2C(N)=O)CCC3)nc2scc(-c3cccc([N+](=O)[O-])c3)c2c1=O [Compound 3c, 2-(2-(3-Allyl-3,4-dihydro-4-oxo-5-(3-nitrophenyl)thieno[2,3-d]pyrimidin-2-ylthio)acetamido)-5,6-dihydro-4H-cyclopenta[b]thiophene-3-carboxamide] |
| 5.58 µM | 72% | 136 to 140 °C | – | C=CCn1c(SCC(=O)Nc2sc(C(=O)OCC)c(C)c2C(N)=O)nc2scc(-c3ccccc3)c2c1=O [Compound 4e, Ethyl 5-(2-(3-allyl-3,4-dihydro-4-oxo-5-phenylthieno[2,3-d]pyrimidin-2-ylthio)acetamido)-4-carbamoyl-3-methylthiophene-2-carboxylate] |
